Experimental data taken from US20220117867A1, “ANTIMICROBIAL ACTIVITY OF FATTY ACID ESTERS AND COMBINATIONS THEREOF” (SYMRISE AG, priority 2019, published 2022).
In brackets after ≈: the same amount, converted by molar mass.

Columns and labels:
Assay type in all cases: cell-based
Corynebacterium xerosis [1] = assay: Minimum Inhibitory Concentration (MIC) Method B, DIN 58940; Synergy Index according to Kull; conditions: Method B (Examples 3, 5, 6), C. xerosis, single substance
Procedure: (§1) B) Minimum Inhibitory Concentration (MIC) Method B
(§2) 5 ml of the appropriate dilution of the test product is mixed with 0.1 ml of test suspension and mixed well. After the required action times, the mixture was mixed again. Each 0.1 ml were removed and placed in 5 ml of CSL-bouillon without neutralizing agents.
(§3) In order to calculate the synergy index with MIC values, the Kull equation (I) was used as follows:
(§4) SI=(MICmixture×PA)/MICA+(MICmixture×PB)/MICB (I)

Escherichia coli = assay: as above; conditions: Method B (Example 5), E. coli, single substance
Procedure: as §1
(§5) Test conditions: Evaluation of bactericidal and fungicidal activity in qualitative suspension test (VAH-standard methods, 04-2015). 5 ml of the appropriate dilution of the test product is mixed with 0.1 ml of test suspension and mixed well. After the required action times, the mixture was mixed again. Each 0.1 ml were removed and placed in 5 ml of CSL-bouillon without neutralizing agents.
as §3, §4
(§6) The synergistic activity of 3-hydroxypropyl caprylate and glyceryl caprylate on several bacterial and fungal reference strains for application in either Deodorant application or as preservative was determined by measuring minimum inhibitory concentrations (MIC values) according to DIN 58940 and method B (method section above).

Staphylococcus hominis = assay: as above; conditions: Method B (Example 5), S. hominis, single substance
Procedure: as §1, §5, §3, §4, §6

Aspergillus brasiliensis = assay: as above; conditions: Method B (Example 5), A. brasiliensis, single substance
Procedure: as §1, §5, §3, §4, §6

Epidermophyton floccosum = assay: as above; conditions: single substance
Procedure: as §1, §2, §3, §4
SI is the Synergy Index according to Kull
MICA is the MIC value for Substance A
MICB is the MIC value for Substance B
MICmixture is the MIC value for the mixture of substances A and B
PA is the proportion of the substance A in the mixture
PB is the proportion of the substance B in the mixture

Corynebacterium xerosis [2] = assay: Minimum Inhibitory Concentration (MIC) Method A
Procedure: A) Minimum Inhibitory Concentration (MIC) Method A The MIC test is a test on growth inhibition. Estimation of Minimum Inhibitory Concentration (MIC) is executed in 96 well plates. Through the comparison of bacterial growth curves with positive and negative controls via optical density (OD), different concentrations of given test substances are evaluated. Bacteria are cultivated under adjusted conditions based on information of the German Collection of Microorganisms and Cell Cultures (DSMZ) and stored in 50% Glycerol prior to use. Afterwards, the following method was applied: Adding growth medium (according to microorganism) to each well of the microplate. Adding the test-substances in different concentrations, positive controls (water controls only with medium) and negative controls (benchmarks according to organism). Adding the microorganism in a concentration of 10^6 CFU/ml (CFU=colony forming units). Incubation of the microplates at appropriate conditions. Aerobic microorganism: optical density is continuously measured (microplate reader) during incubation. Anaerobic microorganism: incubation in an anaerobic chamber, measurement of the optical density at the end of the incubation, comparison of the results with positive and negative controls. According to resulting growth curves, substance concentrations are labelled either as inhibiting or normal growth and MIC is defined as the lowest concentration where a clear inhibition is visible. Experiments at concentration limits (highest concentration labelled as growth and lowest concentration labelled as inhibiting) are performed at least twice.

SMILES: CCCCCCCC(=O)OCC(O)CO (centres unmarked) [glyceryl caprylate, reference compound]
- MIC (Corynebacterium xerosis [1]): 1000 µg/mL
- MIC (Escherichia coli): 2500 µg/mL
- MIC (Staphylococcus hominis): 1000 µg/mL
- MIC (Aspergillus brasiliensis): 2500 µg/mL

SMILES: CC(C)=CCCC(C)=CCCC(C)=CCO [Farnesol]
- MIC (Corynebacterium xerosis [1]): 16 µg/mL

SMILES: CCCCC(O)CO (centres unmarked) [1,2 Hexanediol]
- MIC (Epidermophyton floccosum): 10000 µg/mL

SMILES: C=CCCCCCCCCC(=O)OCC(O)CO (centres unmarked) [glyceryl monoundecylenate]
- MIC (Corynebacterium xerosis [2]): low
- MIC (Corynebacterium xerosis [2]; read-out: MIC): 250 µg/mL (≈ 968 µM)
